Laboratory results as given in patent US8609695B2, “Methods of treating and/or suppressing insulin resistance” (Endorecherche, Inc., priority 1999, dated 2013).
Marks after values point to notes of the source that are not given here.

Legend:
ovariectomized rat = assay: 35-week treatment, total body fat and body weight of ovariectomized rat (Example 1); format: in vivo; conditions: OVX rats; for Body Weight at Necropsy: 37 weeks
Description: The animals were housed three per cage and were allowed free access to tap water and a pelleted certified rodent feed (Lab Diet 5002, Ralston Purina, St-Louis, Mo.). The experiment was conducted in a Canadian Council on Animal Care approved facility in accordance with the CCAC Guide for Care and Use of Experimental Animals. […] The appropriate compound or vehicle alone was given once daily by oral gavage in 0.5 ml/rat for 37 weeks. Approximately 24 hours after the last dosing, overnight fasted animals were killed by exsanguination at the abdominal aorta under isoflurane anesthesia. After 35 weeks of treatment, individual rats under anesthesia with isoflurane had their whole body skeleton as well as their right femur scanned using dual energy x-ray absorptiometry (DEXA; QDR 4500A, Hologic, Waltham, Mass.) and a Regional High Resolution Scan software. The scan field size used for the whole body was 30.492×17.912 cm, the resolution was 0.1512×0.0640 cm and the scan speed was 2.499 mm/sec. The fat body composition of the whole body was determined. Data are expressed as the means±SEM. Statistical significance was determined according to the multiple-range test of Duncan-Kramer (1956).

[1] = tested on: ovariectomized female rats; assay: 34-week treatment with ethynyl estradiol, EM-652.HCl, Raloxifene and DHEA, body fat (Example 7); format: in vivo, rat; conditions: OVX rats, 34 weeks
Description: The objective of this study was to assess the effect of a combined treatment with EM-652.HCl, and DHEA on body fat and body weight parameters in ovariectomized rats. For this purpose, ovariectomized rats received daily administration of EM-652.HCl (1 mg/kg), and DHEA (80 mg/kg) alone or in combination, for 34 weeks. EM-652.HCl was administered orally while DHEA was applied topically on dorsal skin. One group of animals was orally treated with 17-ethynylestradiol (0.1 mg/kg) and Raloxifene (EM-1105; 1 mg/kg) for comparison.
Ten to twelve week-old female Sprague-Dawley rats (Crl:CD(SD)Br) weighing approximately 235-250 g at start of treatment were used. Eighty rats were randomly distributed between 7 groups of 11 to 12 animals per group as follows: 1) Intact control; 2) OVX control; 3) OVX+EE2 (0.1 mg/kg); 4) OVX+raloxifene (1 mg/kg); 5) OVX+EM-652.HCl (1 mg/kg); 6) OVX+DHEA (80 mg/kg); 7) OVX+EM-652.HCl+DHEA. On day 1 of the study, the animals of the appropriate groups were bilaterally ovariectomized (OVX) under isoflurane anesthesia. EM-652.HCl, raloxifene and EE2 (Steraloids) were administered once daily by oral gavage as suspension in 0.4% methylcellulose (0.5 ml/rat) for 34 weeks while DHEA was applied topically once daily on dorsal skin as a solution in 50% ethanol-50% propylene glycol (0.5 ml/rat) for the same time period. Approximately 24 hours after the last dosing, overnight fasted animals were killed by exsanguination at the abdominal aorta under isoflurane anesthesia. Left and right retroperitoneal adipose tissues were collected and weighed.
After 34 weeks of treatment, individual rats under anesthesia with isoflurane had their whole body skeleton scanned using dual energy x-ray absorptiometry (DEXA; QDR 4500A, Hologic, Waltham, Mass.) and a Regional High Resolution Scan software. The body composition (including fat percentage) was determined.
Data were expressed as the means±SEM.

[2] = tested on: ovariectomized female rats; assay: SERM comparison, energy balance and lipid-lipoprotein metabolism (Example 10); format: in vivo, Rattus norvegicus; conditions: OVX rats, 20 days
Description: For this purpose, tested compounds were administered by oral gavage for 20 days (0.5 mg/rat for each compound; 0.5 ml/rat) in 0.4% methylcellulose to ovariectomized female rats.
d) Diet: • During acclimation period, rats received a certified rodent diet (Lab Diet #5002, pellet) and tap water ad libitum while during study period, they received a high carbonhydrate diet (diet #3) and tap water ad libitum. The diet was composed of (g/100 g): Corn starch, 31.2; Dextrose, 31.2; Casein, 20.0; corn oil, 6.4; dl-Methionine, 0.3; Vitamine mix, 1.0; AIN-76 mineral mix, 4.9; fiber, 5.0. Rats were fasted (with access to water only) around 07 h00 the morning of their necropsy Randomization:
Test group: Seventy-seven rats were assigned to 8 groups of 9-10 rats for conduct of the study outlined below.
On day 0 of the study, rats from group 2 to 8 were ovariectomized (by bilateral flank incision) under Isoflurane anesthesia. Rats from group 1 were sham-operated.
Rats were weighed on day 0 (surgery) and then, every 2 days during study period as well as on the day of necropsy.
Food consumption was evaluated every 2 days.
In order to determine the effect of treatments on fat percentage, body composition was measured on Day 17 of the study using dual energy x-ray absorptiometry (DEXA; QDR 4500A, Hologic, Waltham, Mass.).
On day 21 of the study, approximately 24 hours after the last dosing and 6 hours of fasting, animals under Ketamine-Xylazine anesthesia were killed by exsanguination at the abdominal aorta.
Blood lipids (Total cholesterol and Triglycerides) and glucose were measured on frozen serum samples using the Boehringer Mannheim Diagnostic Hitachi 911 Analyzer (Boehringer Mannheim Diagnostic Laboratory Systems). Circulating hormones and substrates (Insulin and leptin) were measured on serum sample using the following kits: • Insulin: Linco RIA kit • Leptin: Linco RIA kit Organs and Tissues Collected
The following tissues were collected and weighed: • Muscle (right soleus and right VLM), fat (right retroperitoneal and right inguinal), and brown adipose tissue.
A piece of ˜0.1 g of all tissues (except uterus and vagina) were frozen in liquid nitrogen and kept at −80 C for later determination of lipoprotein-lipase (LPL) activity.

ovariectomized rats = assay: 20-day treatment with EM-652.HCl, body fat, body weight and energy balance (Example 3); format: in vivo, rat; conditions: OVX rats, 20 days
Description: Eight to ten week-old female Sprague-Dawley rats (Crl:CD(SD)Br) (Charles River Laboratory, St-Constant, Canada) weighing approximately 200-225 g at the start of treatment were used. The animals were acclimatized to the environmental conditions (temperature: 22±3° C.; 10-h light-14-h dark cycles, lights on at 06:00 h) for 1 week before starting the experiment. The animals were housed individually in stainless steel cages of conventional design and were allowed free access to tap water and a high carbohydrate mixed diet composed of (g/100 g): Corn starch, 31.2; Dextrose, 31.2; Casein, 20.0; corn oil, 6.4; dl-Methionine, 0.3; Vitamine mix, 1.0; AIN-76 mineral mix, 4.9 and fiber, 5.0. The experiment was conducted in a Canadian Council on Animal Care approved facility in accordance with the CCAC Guide for Care and Use of Experimental Animals.
On day 1 of the study, the animals of the appropriate groups were bilaterally ovariectomized (OVX) under isoflurane anesthesia. […] The treatment with EM-652.HCl or vehicle alone (0.4% methylcellulose in water) was initiated on day 2 of the study. The compound or vehicle was given once daily by oral gavage in 0.5 ml/rat for 20 days. Body weights and food consumption were recorded every 2 days.
Approximately 24 hours after the last dosing, overnight fasted animals were anesthesized with ketamine-xylazine and blood drawn by cardiac puncture. The blood was collected as well as white and brown adipose tissues.
Body weight, food intake, and body gains in energy, fat, and protein were determined according to Deshaies et al, Am. J. Physiol., 1997; 273, E355-E362 (1997).
Lipoprotein lipase activities were determined according to Deshaies et al, Am. J. Physiol., 1997; 273, E355-E362 (1997).

[3] = tested on: ovariectomized female rats; assay: 20-day treatment with EM-652.HCl, estradiol and DHEA, body fat (Example 6); format: in vivo, Rattus norvegicus; conditions: OVX rats
Description: d) Diet: Certified Rodent feed (Lab Diet #5002, pellets) and tap water were provided ad libitum during the acclimation period. During the study period, the rats received an enriched carbonhydrate diet ad libitum. The enriched diet (diet #3) was composed of (g/100 g): Corn starch, 31.2; Dextrose, 31.2; Casein, 20.0; Corn oil, 6.4; dl-Methionine, 0.3; Vitamin mix, 1.0; AIN-76 mineral mix, 4.9; Fiber, 5.0.
80 rats were assigned to 8 groups of 10 rats for the conduct of the study outlined below:
On day 0 of the study, rats from groups 2 to 8 were ovariectomized, by bilateral flank incision, under Isoflurane-induced anesthesia. Rats from group 1 were sham-operated.
The administration of the test articles or vehicle began on Day 1 (the day following the ovariectomy). The tested compounds were given as suspensions in 0.4% methylcellulose by oral gavage (0.5 ml/gavage) for 20 days.
On day 21 of the study (prior to the necropsy), body composition was determined on whole body skeleton of animals under Isoflurane-induced anesthesia using dual energy x-ray absorptiometry (DEXA; QDR 4500A, Hologic) in order to determine the effect of treatments on fat percentage.
Right and left retroperitoneal adipose tissue were collected and weighed.

[4] = EE2 0.1, Raloxifene 1, EM-652.HCl 1 mg/kg oral, DHEA 80 mg/kg topical
[5] = high carbohydrate diet, 0.5 mg/rat oral gavage
[6] = EM-652.HCl 0.5 mg/rat oral once daily, E2 implant

For `CC1=C(c2ccc(OC(=O)C(C)(C)C)cc2)[C@H](c2ccc(OCCN3CCCCC3)cc2)Oc2cc(OC(=O)C(C)(C)C)ccc21` [EM-800], the “decrease of the OVX-induced stimulation of body fat (DEXA)” value (ovariectomized rat; 0.01 mg/kg orally once daily, 35 weeks, FIG. 1) was 78%, the “Body Weight at Necropsy” value (ovariectomized rat; 0.01 mg/kg orally once daily) was 385 ± 17 g and the “Body Weight at Necropsy” value (ovariectomized rat; 0.03 mg/kg orally once daily) was 364 ± 10 g. The “Body Weight at Necropsy” value (ovariectomized rat; 0.1 mg/kg orally once daily) was 369 ± 17 g, the “Body Weight at Necropsy” value (ovariectomized rat; 0.3 mg/kg orally once daily) was 359 ± 7 g and the “Body Weight at Necropsy” value (ovariectomized rat; 1 mg/kg orally once daily) was 368 ± 6 g.
With `Cl.O=C(c1ccc(OCCN2CCCCC2)cc1)c1c(-c2ccc(O)cc2)sc2cc(O)ccc12` [Raloxifene] the “increment of body fat and retroperitoneal adipose tissue by ovariectomy” value [1] was “prevented”, the Fat % ([1]; DEXA, EE2 0.1, Raloxifene 1, EM-652.HCl 1 mg/kg oral, DHEA 80 mg/kg topical) was 22.8 ± 1.6% and the “Left retroperitoneal adipose tissue” value [1, 4] was 1.41 ± 0.13 g. For the same compound, the “Right retroperitoneal adipose tissue” value [1, 4] was 1.29 ± 0.12 g, the “Body Weight at Necropsy” value (ovariectomized rat; 0.01 mg/kg orally once daily) was 439 ± 13 g and the “Body Weight at Necropsy” value (ovariectomized rat; 0.03 mg/kg orally once daily) was 451 ± 14 g. For the same compound, the “Body Weight at Necropsy” value (ovariectomized rat; 0.1 mg/kg orally once daily) was 389 ± 14 g, the “Body Weight at Necropsy” value (ovariectomized rat; 0.3 mg/kg orally once daily) was 367 ± 9 g and the “Body Weight at Necropsy” value (ovariectomized rat; 1 mg/kg orally once daily) was 342 ± 12 g. For the same compound, the “effect on body fat (DEXA)” value (ovariectomized rat; 0.01-1 mg/kg orally once daily, 35 weeks, FIG. 1) was “less active than EM-800”, the “Serum insulin (in words)” value ([2]; 0.5 mg/rat) was “decreased” and the “Brown adipose tissue Lipoprotein lipase activity” value [2, 5] was 960 ± 116 μU/g protein. For the same compound, the “Brown adipose tissue weight” value [2, 5] was 0.307 ± 0.26 g, the Cumulative food intake [2, 5] was 307 ± 8 g and the Serum glucose [2, 5] was 13.8 ± 1.2 mmol/L. The Serum insulin [2, 5] was 0.077 ± 0.10 nmol/L, the Serum leptin [2, 5] was 1.39 ± 0.30 ng/mL and the Serum total cholesterol [2, 5] was 1.19 ± 0.08 mmol/L. For the same compound, the Serum triglycerides [2, 5] was 1.20 ± 0.35 mmol/L, the “Soleus muscle Lipoprotein lipase activity” value [2, 5] was 10.2 ± 2.0 μU/g protein and the Soleus muscle weight [2, 5] was 0.099 ± 0.003 g. The Total weight [2, 5] was 230 ± 3 g, the VastusLateralis muscle weight [2, 5] was 0.795 ± 0.055 g and the “White adipose tissue inguinal Lipoprotein lipase activity” value [2, 5] was 579 ± 46 μU/g protein. For the same compound, the “White adipose tissue inguinal weight” value [2, 5] was 0.245 ± 0.047 g, the “White adipose tissue retroperitoneal Lipoprotein lipase activity” value [2, 5] was 1510 ± 52 μU/g protein and the “White adipose tissue retroperitoneal weight” value [2, 5] was 1.32 ± 0.24 g.
`C[C@]12CC[C@@H]3c4ccc(O)cc4CC[C@H]3[C@@H]1CC[C@@H]2O` [E2, estradiol] was tested, and the “total energy intake, higher than that of intact animals” value (ovariectomized rats) was 17%, the Digestible energy intake (ovariectomized rats; [6]) was 5511^a kJ and the Enegery gain (ovariectomized rats; [6]) was 903 kJ. The “Apparent energy (expenditure)” value (ovariectomized rats; calculated from energy intake and energy gain) was 4609^a kJ, the “Brown adipose tissue Lipoprotein lipase activity” value [2, 5] was 1198 ± 62 μU/g protein and the “Brown adipose tissue weight” value [2, 5] was 0.211 ± 0.021 g. The Cumulative food intake [2, 5] was 255 ± 9 g, the Serum glucose [2, 5] was 11.8 ± 1.4 mmol/L and the Serum insulin [2, 5] was 0.070 ± 0.007 nmol/L. The Serum leptin [2, 5] was 0.309 ± 0.097 ng/mL, the Serum total cholesterol [2, 5] was 2.03 ± 0.15 mmol/L and the Serum triglycerides [2, 5] was 0.43 ± 0.04 mmol/L. The “Soleus muscle Lipoprotein lipase activity” value [2, 5] was 10.9 ± 2.0 μU/g protein, the Soleus muscle weight [2, 5] was 0.086 ± 0.003 g and the Total weight [2, 5] was 198 ± 4 g. For the same compound, the VastusLateralis muscle weight [2, 5] was 0.718 ± 0.026 g, the “White adipose tissue inguinal Lipoprotein lipase activity” value [2, 5] was 416 ± 74 μU/g protein and the “White adipose tissue inguinal weight” value [2, 5] was 0.158 ± 0.019 g. The “White adipose tissue retroperitoneal Lipoprotein lipase activity” value [2, 5] was 1442 ± 243 μU/g protein, the “decrease of body fat” value ([3]; 20 days) was 46% and the “decrease of retroperitoneal adipose tissue” value ([3]; 20 days) was 78%. It also gave a Retroperitoneal adipose tissue ([3]; enriched carbohydrate diet, 20 days oral, EM-652.HCl 0.5, E2 0.5, DHEA 100 mg/rat) of 0.81 ± 0.17 g and a Fat % ([3]; enriched carbohydrate diet, 20 days oral, EM-652.HCl 0.5, E2 0.5, DHEA 100 mg/rat, DEXA day 21) of 10.3 ± 0.6%.
